Results from ChEMBL document CHEMBL1221220, “Transport and signaling via the amino acid binding site of the yeast Gap1 amino acid transceptor” (Nat Chem Biol, 2009).
Changes are numbered by the printed parent chain. Calls of active or inactive are those of the source. No cut-off for these calls is given here.

Columns and labels:
[1] = system: T1, General amino-acid permease GAP1 (Saccharomyces cerevisiae), P19145 [N391C]; test: Activation of yeast Gap1 N391C mutant-mediated amino acid uptake at 10 mM
T1 sequence (whole entry): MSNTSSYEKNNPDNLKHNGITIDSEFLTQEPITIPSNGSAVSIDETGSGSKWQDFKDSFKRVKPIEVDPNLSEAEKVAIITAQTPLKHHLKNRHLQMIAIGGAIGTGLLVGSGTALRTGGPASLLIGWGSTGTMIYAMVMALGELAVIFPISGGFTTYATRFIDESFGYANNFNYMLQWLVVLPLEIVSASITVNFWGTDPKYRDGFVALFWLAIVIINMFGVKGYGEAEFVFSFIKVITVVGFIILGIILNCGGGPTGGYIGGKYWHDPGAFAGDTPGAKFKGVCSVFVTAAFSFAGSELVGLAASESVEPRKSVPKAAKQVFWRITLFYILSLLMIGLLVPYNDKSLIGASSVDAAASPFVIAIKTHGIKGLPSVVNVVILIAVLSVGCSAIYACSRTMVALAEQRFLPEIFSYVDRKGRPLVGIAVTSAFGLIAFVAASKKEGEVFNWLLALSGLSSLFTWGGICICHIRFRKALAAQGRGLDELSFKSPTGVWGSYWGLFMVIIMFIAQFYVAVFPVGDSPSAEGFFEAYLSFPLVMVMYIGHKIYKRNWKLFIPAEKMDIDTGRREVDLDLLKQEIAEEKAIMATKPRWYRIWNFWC

[2] = target: T2, General amino-acid permease GAP1 (Saccharomyces cerevisiae) (UniProt P19145); test: Induction of nitrogen-starved wild type sigma1278b yeast Gap1-mediated amino acid uptake at 2 mM in presence of 10 mM MTSEA treated before compound addition
T2 sequence (whole entry): T1 sequence (whole entry) with C391N

[3] = system: T3, General amino-acid permease GAP1 (Saccharomyces cerevisiae), P19145 [V381C]; test: Induction of yeast Gap1 V381C mutant-mediated amino acid uptake at 2 mM in presence of 10 mM MTSEA treated before compound addition
T3 sequence (whole entry): T1 sequence (whole entry) with V381C, C391N

[4] = system: T4, General amino-acid permease GAP1 (Saccharomyces cerevisiae), P19145 [L383C]; test: Induction of yeast Gap1 L383C mutant-mediated trehalose activation at 10 mM
T4 sequence (whole entry): T1 sequence (whole entry) with L383C, C391N

## NC(=O)NCCC[C@H](N)C(=O)O
[1]
  Activity: inactive
[2]
  inhibition: Active
[3]
  Activity: Active
[4]
  Activity: inactive
